Entries after “also recorded” stand apart in the source; their conditions may differ.
Experiments:
[1] = tested on: non-Hodgkin's lymphoma / DLBCL cell lines; conditions: cited from earlier work; for effect on DLBCL cells with EZH2 (Y641) mutations: diffused large B cell lymphoma cells
[2] = tested on: IMQ-induced psoriasis-like skin inflammation; test: Imiquimod (IMQ)-mediated psoriasis mouse model, topical treatment of ears; type: in vivo, C57BL/6 mice
Protocol: Experiments were conducted in accordance with the German law guidelines of animal care. […] At day 7, mice were sacrificed and analysed. For IL-36α-mediated psoriasis induction, ears of male C57BL/6 mice (8-12 weeks old) were treated by intradermal injections using 1 μg murine IL-36α (aa 8-160, R&D) or PBS control for 5 consecutive days. […] Inhibitors were topically applicated 6 h before intradermal injections of IL-36α or PBS were applied. Mice were sacrificed and analysed at day 6.
Sample preparation was performed as described. The following anti-mouse antibodies from BioLegend were used: anti-CD45 FITC (103107), anti-CD11 b PacificBlue (101223), anti-Ly6G PE (127607), anti-F4/80 APC (123115), anti-CD11c Pacific Blue (117322), anti-MHC-II APC (107613), anti-CD172α PE (144011) and anti-Silec-H PE (129605). Anti-PDCA-1 APC (17-2092-80) and anti-αβTCR PE (HM3628) were purchased from Invitrogen, and anti-γδ-TCR APC (17-5711-82) from Sigma. Data was acquired on a LSRII flow cytometer (Becton Dickson).
Ear sections from mice were fixed in 10% formalin (Carl Roth) and subsequently embedded in paraffin. 5-μm sections were prepared and incubated with the following antibodies from Cell Signaling: pSTAT3 (9145), pRB (8516) and H3K27me3 (9733). For staining of human skin samples, EZH2 antibody (Cell Signaling, 5246) was used. Antigen retrieval was performed in 1 mM EDTA pH 8.0 for pSTAT3, and 10 mM citrate buffer pH 6.0+0.5% Triton X-100 for EZH2, H3K27me3 and pRB. After incubation with peroxidase-coupled secondary antibodies, sections were stained with DAB substrate.

[3] = tested on: IL-36-mediated psoriasis-like dermatitis; test: IL-36α-triggered psoriasis-like dermatitis mouse model, topical treatment of ears; type: in vivo, C57BL/6 mice
Protocol: Experiments were conducted in accordance with the German law guidelines of animal care. […] At day 7, mice were sacrificed and analysed. For IL-36α-mediated psoriasis induction, ears of male C57BL/6 mice (8-12 weeks old) were treated by intradermal injections using 1 μg murine IL-36α (aa 8-160, R&D) or PBS control for 5 consecutive days. […] Inhibitors were topically applicated 6 h before intradermal injections of IL-36α or PBS were applied. Mice were sacrificed and analysed at day 6. Ear sections from mice were fixed in 10% formalin (Carl Roth) and subsequently embedded in paraffin. 5-μm sections were prepared and incubated with the following antibodies from Cell Signaling: pSTAT3 (9145), pRB (8516) and H3K27me3 (9733). For staining of human skin samples, EZH2 antibody (Cell Signaling, 5246) was used. Antigen retrieval was performed in 1 mM EDTA pH 8.0 for pSTAT3, and 10 mM citrate buffer pH 6.0+0.5% Triton X-100 for EZH2, H3K27me3 and pRB. After incubation with peroxidase-coupled secondary antibodies, sections were stained with DAB substrate.

[4] = tested on: H3K27me3; conditions: cited from earlier work
[5] = experimental animals; cited from earlier work
[6] = tested on: B cell lymphoma xenografts; conditions: cited from earlier work
[7] = tested on: SCLC cell lines; conditions: three SCLC cell lines; cited from earlier work
[8] = tested on: prostate cancer cell lines; conditions: in vitro; cited from earlier work
[9] = tested on: cutaneous melanomas; conditions: mice; cited from earlier work
[10] = tested on: wild-type and mutant EZH2; conditions: cited from earlier work
[11] = flow cytometry of ears at day 7

CCS(=O)(=O)N1CCC([C@@H](C)n2c(C)c(C(=O)NCc3c(OC)cc(C)[nH]c3=O)c3ccccc32)CC1 [CPI-169]
effect on non-Hodgkin's lymphoma (NHL) cell lines ([1]; large panel of NHL cell lines): triggering cell cycle arrest and ultimately resulting in apoptosis
H3K27me3 expression in the epidermis (EZH2 inhibition) ([2]; ear skin sections of treated mice): loss
immune cell infiltration (neutrophils, macrophages, T cells) [2, 11]: fully abrogated
number of infiltrating plasmacytoid (pDC) and myeloid dendritic cells (mDC) [2, 11]: significantly suppressed
IκBζ expression, phosphorylation of EZH2 at T345 and of STAT3 at Y705 in the skin ([2]; immunoblot of skin tissue at day 7): completely abrogated
expression of IκBζ target genes (Cxcl2, Cxcl5) and cytokines (Il17a, Il23a) in skin ([2]; qPCR of skin samples at day 7): significantly downregulated
psoriasis-like skin inflammation (ear thickening, keratinocyte hyperproliferation, immune cell infiltration) ([2]; topical daily for 6 days with IMQ, abemaciclib 0.02 mg, CPI-169 0.05 mg per ear/day, analysed day 7): completely suppressed; also recorded: completely suppressing
IL-36-mediated expression of IκBζ, phosphorylation of EZH2 at T345 and activation of STAT3 (pSTAT3 Y705) in skin ([3]; immunoblot of ear skin at day 6): suppressed
keratinocyte hyperproliferation and immune cell infiltration ([3]; intradermal IL-36α 5 days, topical inhibitor, abemaciclib 0.02 mg, CPI-169 0.05 mg, day 6): effectively blocked
IκBζ target gene expression and key cytokine expression (Il17a, Il23a) ([3]; qPCR of skin samples): effectively blocked
cellular H3K27me3 / H3K27 methylation [4]: decreases

COc1cc(C)[nH]c(=O)c1CNC(=O)c1c(C)n([C@H](C)C2CCN(CC(F)(F)F)CC2)c2ccccc12 [CPI-1205]
tolerability [5]: well-tolerated

CCc1c(N(CC)C2CCOCC2)cc2oc(C3CCN(C(C)C)CC3)cc2c1C(=O)NCc1c(C)cc(C)[nH]c1=O [EBI-2511]
efficacy in Pfeiffer tumor Xenograft models ([6]; mouse): high in vivo efficacy

CCC(CC)n1ccc2c(C(=O)NCc3c(C)cc(C)[nH]c3=O)cc(C#N)cc21 [EI1]
effect on DLBCL cells with EZH2 (Y641) mutations [1]: decreased proliferation, cell cycle arrest, and apoptosis
cellular H3K27me3 / H3K27 methylation [4]: blocks

CCN(c1cc(C#CCN2CCOCC2)cc(C(=O)NCc2c(C)cc(C)[nH]c2=O)c1C)[C@H]1CC[C@H](N(C)CCOC)CC1 [EPZ011989]
tumor growth, xenograft model of human B cell lymphoma ([6]; mouse): significant tumor growth inhibition

CC[C@H](C)n1cc(C)c2c(C(=O)NCc3c(C)cc(C)[nH]c3=O)cc(-c3ccc(N4CCNCC4)nc3)cc21 [GSK126]
effect on DLBCL cells with EZH2 (Y641) mutations [1]: effectively inhibits proliferation
growth of SCLC cell lines [7]: induces growth inhibition
growth of EZH2 mutant DLBCL xenografts ([6]; mice): effectively inhibits

CCCc1cc(C)[nH]c(=O)c1CNC(=O)c1cc(-c2ccnc(N3CCN(C)CC3)c2)cc2c1cnn2C(C)C [GSK343]
proliferation of prostate cancer cell lines [8]: inhibits proliferation
H3K27me3 levels ([4]; breast cancer cells in vitro): decrease

Cc1cc(C)c(CNC(=O)c2cc(-c3ccc(N4CCN(C)CC4)nc3)cc3c2c(C)cn3C(C)C)c(=O)[nH]1 [GSK503]
growth and metastasis of cutaneous melanomas [9]: inhibits growth and metastasis

Cc1cc(C)c(CN2CCc3c(Cl)cc(-c4c(C)noc4C)c(Cl)c3C2=O)c(=O)[nH]1 [PF-06726304]
efficacy in diffuse large B-cell lymphoma Karpas-422 tumor model ([6]; mouse, in vivo): good efficacy

CCCc1cc(C)[nH]c(=O)c1CNC(=O)c1cc(-c2ccc(N3CCN(C(C)C)CC3)nc2)cc2c1cnn2C(C)C [UNC1999]
effect on DLBCL cells with EZH2 (Y641) mutations [1]: selectively killed
difference in potency, wild-type vs mutant Y641N EZH2 methyltransferase activity [10]: < 5 fold

Reference: US20220280526A1, “AGENT FOR THE TREATMENT OF PSORIASIS” (EBERHARD KARLS UNIVERSITAET TUEBINGEN MEDIZINISCHE FAKULTAET, priority 2019, published 2022)
